Test [1] concerns C.B17/Icr-Prkdc^scid/IcrIcoCrl mice, adoptive transfer model of IBD. Put plainly: CD4+CD45RBhi Adoptive Transfer Inflammatory Bowel Disease. The conditions noted are these: 200 mg/kg oral twice daily, 21 days of treatment. In kind it is in vivo, mouse. As to the method: On Day 0, CD4+ T cells were isolated from the spleens of female Balb/cAnNCrl mice (Charles River Laboratories; 12 weeks old) as described in Example E. The resulting cells were labeled with fluorescent antibodies against CD4 and CD45 markers and were sorted by flow cytometry for CD4+CD45RBhi cells based on fluorescence. 400,000 CD4+CD45RBhi cells were then injected intraperitoneally into C.B17/Icr-Prkdc^scid/IcrIcoCrl mice (Charles River Laboratories strain code 236; 12 weeks old). This injection of cells is known to those skilled in the art as adoptive transfer. […]
For each H&E stained section, submucosal edema was quantitated by measuring the distance from the muscularis mucosa to the internal border of the outer muscle layer in a non-tangential area thought to most representative the severity of this change. Mucosal thickness was also measured in a non-tangential area of the section that best represented the overall mucosal thickness. […]
The parameters reflecting epithelial cell loss/damage were scored individually using a % area involved scoring method: […]
The three scored parameters (inflammation, glandular epithelial loss, and erosion) were ultimately summed to arrive at a sum of histopathology scores, which indicates the overall damage and would have a maximum score of 15.

The subject of test [2] is C57BL/6 mice immunized with hen egg lysozyme. Briefly: T Cell In Vivo Functional Assay (HEL immunization, ex vivo recall). Also on record: species or system mouse. Particulars: 200 mg/kg oral twice a day, 7 days; relative to vehicle. As to the method:
To determine the effect of compounds of Formula I on T cell responses, the following experiment was conducted. On Day O, C57BL/6 (Jackson Laboratories #000664, 6-8 weeks of age) were immunized at the base of the tail with 100 μg of hen egg lysozyme (HEL; Sigma #L7773) with complete Freund's adjuvant (CFA; Sigma #F5881). Starting on Day 0 and continuing until Day 7, mice were dosed twice a day by oral administration with vehicle (water) or the compound of Example 26 (200 mg/kg). On Day 7, opopiteal lymph nodes were removed, single cell suspensions were prepared and 500,000 cells in 200 μL were activated in 96 well plates with the indicated dose of HEL peptide. Following incubation for 72 hours at 37° C., 5% CO2, supernatants were harvested for IFNγ ELISA (R&D Systems catalog #MIF00) and proliferation was assessed using the CellTitre-Glo™ luminescent assay (Promega, Catalog #G7571) with both assays performed according to the manufacturer's protocol. ELISA plates were quantified relative to a standard curve using Molecular Devices Versamax Reader at […] and Softmax Pro software; proliferation was quantitated on a Packard TopCount instrument using luminescence protocol and data was analyzed using excel software.

Test [3] concerns C57BL/6 recipient mice, adoptive transfer EAE model. Briefly: Adoptive Transfer Experimental Autoimmune Encephalomyelitis. The conditions noted are these: 200 mg/kg oral gavage twice daily for 26 days. In kind it is in vivo, mouse. Here is the method: Having observed that compounds of Formula I inhibit T cell activation in vitro and in vivo, the effect of a compound of Formula I on an autoimmune disease induced by T cells was determined using an adoptive transfer EAE model, an animal model of human multiple sclerosis (Brain (2006), 129, 1953-1971). This model relies on the injection of T cells from animals with EAE into disease-free host animals. This injection of cells is known to those skilled in the art as adoptive transfer. By injecting the animals with activated, encephalogenic T cells, this model is focused on the pathogenic stage of EAE autoimmune disease. On Day-14, C57BL/6 mice (Taconic Farms; 10 weeks old) were immunized with a disease-causing protein, MOG(35-55) peptide in complete Freund's adjuvant (Hooke Laboratories, catalog #EK-0113). On Day -3, spleens were harvested, single cell suspensions were prepared and then 5,000,000 cells/mL were stimulated with 20 μg/mL MOG(33-55) peptide (Open Biosystems), 30 ng/mL IL-12 (R&D Systems catalog #419-ML-010), 10 μg/mL anti-IFNγ antibody (BD Biosciences catalog #554408) at 37° C., 5% CO2. On Day 0, 1,500,000 of these cells were injected intravenously into the tail veins of C57BL/6 recipient mice. […] The recipient mice were scored daily days 0 through 26 using the following clinical scoring system: […]

This note sets out measurements from US8575145B2, “Triazolopyridine compounds as PIM kinase inhibitors” (Array BioPharma Inc., priority 2008, dated 2013).

Each structure is given as a SMILES string. Structures can show the parent of a compound that is named as a salt.

For `F[C@@H]1CNCCC1Oc1cccc2ccc(-c3nnc4ccccn34)nc12` (stereo in doubt) [Example 26, 2-([1,2,4]triazolo[4,3-a]pyridin-3-yl)-8-((cis)-3-fluoropiperidin-4-yloxy)quinoline dihydrochloride], in test [1], the “colon histopathology scores (inflammation, gland loss, erosion)” value was “reduced severity of disease” and the “decrease in mucosal thickening relative to vehicle” value was determined as 84%. Moreover, in test [2], the “ex vivo HEL-specific proliferation” value is given as “decreased” and the “ex vivo IFNγ production” value is recorded as “decreased”. Besides, the “disease onset (first of 2 consecutive days with clinical score >= 1)” value in test [3] is “significant delay in disease onset”. Further, the “median day of onset” value in test [3] (untreated and vehicle groups day 6) worked out at 11 days.
